{"source": "patent US20220315897A1", "about": "“METHOD FOR IN VITRO PRODUCTION OF HYALINE CARTILAGE TISSUE” (VANARIX SA, priority 2019, published 2022)", "type_in_all_cases": "cell-based, human", "key": {"chondrocytes [1]": {"tested_on": "chondrocytes", "assay": "qPCR of ACAN and COL2A1 mRNA in chondrocytes and beads (2-step method) with WNT inhibitor", "conditions": "10 μM in medium E; 2-step method after 2D and 3D culture", "experimental": "(§1) XAV939 was obtained by Sigma and used at the concentration of 10 μM for 4 days in 2D culture in medium E.\nIsolation of total RNA was performed by using the RNeasy kit from Qiagen according to the manufacturer's instructions and was measured using a spectrometer. 500 ng of total RNA was used to synthesize cDNA using the PrimeScript RT Reagent Kit (Takara) according to manufacturer's protocol.\nReal-time PCR was performed with PowerUp SYBR Green Master Mix (Applied Biosystems) using the QuantStudio 12K Flex Real-Time PCR System (Thermo Fisher Scientific) at the Genomic platform core facilities (University of Geneva). First, efficacy tests were performed for all primers for validation prior utilization. The relative level of each sample was normalized, at least, to […] (ALAS1). RT-PCR reactions were carried out, at least, in technical and biological triplicates, and the average cycle threshold (CT) values were determined.\n(§2) In order to validate the role of WNT pathway downregulation during the redifferentiation phase (medium R) (FIG. 1A), the inventors replaced medium R by medium E supplemented with 10 μM of XAV-939, a WNT pathway inhibitor for 4 days (FIG. 7G)."}, "chondrocytes [2]": {"tested_on": "chondrocytes", "assay": "Safranin-O staining of GAG in beads from chondrocytes cultured in medium E + WNT inhibitor (2-step method)", "conditions": "medium E + 10 μM inhibitor", "experimental": "as §1\nSafranin-O staining of cartilage spheres and native cartilage formalin-fixed paraffin-embedded samples was performed, in order to reveal glycosaminoglycans (GAG) on 5 μm paraffin slices. Slides were deparaffinated by Xylol and rehydrated by consecutive alcohol bath (concentration 100%, 95% and 70%) with a final 5-minutes distilled water bath. Then, hematoxylin staining was used for nucleus counterstaining, followed by a 5-minutes wash with running hot water. Fast Green (Sigma F7252) was used to stain the cytoplasm, then washed out with acetic acid. The slides were washed out immediately with distilled water. Safranin-O 0.1% in water bath (Sigma S2255) was applied for staining of GAGs for two and a half minutes, then washed repeatedly with distilled water. Dehydration was achieved by vigorously shaking the rack 10-20 times in alcohol baths (concentration 95% and 100%), followed by a Xylol bath until slides assembly with Eukitt resin (Batch A1113, KiNDO1500).\nas §2"}, "WNT signaling": {"tested_on": "WNT signaling", "assay": "Immunoblotting of chondrocytes treated with WNT signaling inhibitor", "conditions": "10 μM, 4 days, 2D culture in medium E", "experimental": "as §1\nCells were lysed 30 min on ice in ice-cold RIPA buffer (Life Technologies), supplemented with phosphatase and protease inhibitors (Complete anti-protease cocktail; Roche). Protein (10 μg) was separated by SDS-PAGE (BioRad) and transferred to PVDF membranes (Amersham) Blots were probed with anti-phospho-β-catenin (Cell Signaling; 5651T), TCF-4 (Cell Signaling; 2569), Axin1 (Cell Signaling; 2087), β-actin HRP (Sigma-Aldrich) and GADPH (Cell Signaling; 2118) (1:1000) followed by the HRP-Rabbit or Mouse conjugated antibodies (1:5000).\nas §2"}}}
{"smiles": "Oc1nc(-c2ccc(C(F)(F)F)cc2)nc2c1CSCC2", "note": "[XAV-939]", "values": [{"measurement": "ACAN expression", "setting": "chondrocytes [1]", "value": "increase"}, {"measurement": "COL2A1 expression", "setting": "chondrocytes [1]", "value": "increase"}, {"measurement": "GAG Safranin-O staining of beads", "setting": "chondrocytes [2]", "value": "presence of hyaline features"}, {"measurement": "axin (immunoblot)", "setting": "WNT signaling", "value": "increase"}, {"measurement": "phospho-β-catenin (immunoblot)", "setting": "WNT signaling", "value": "increase"}]}
